Measured values taken from PMC12290954, “Synthesis, Characterization, Computational Evaluation, CO-Releasing Properties, and Molecular Docking Interactions of New [Mn(CO)3(bpy)L]PF6‑Type Molecules” (ACS Omega, 2025).

Tests used:
deoxymyoglobin = experiment: Myoglobin assay, CO release under 365 nm UV light; details: 365 nm lamp; for [MbCO] / Half-life t 1/2 (50% of total CO release) / Released-CO Equivalent: 15 μM complex, pH 7.4; for [MbCO]: 60 μM myoglobin reduced with sodium dithionite; for Half-life t 1/2 (50% of total CO release) / Released-CO Equivalent: 60 μM myoglobin; for Released-CO Percent: percent of the total CO
Method: The myoglobin solution, which was prepared in PBS (pH 7.4, 0.1 M), was reduced to deoxymyoglobin using sodium dithionite (100 mM). The solutions of each complex ([…]) in DMSO were incubated with deoxymyoglobin solution ([…]), and the final solution was exposed to 365 nm UV light from a distance of 2 cm. Deoxymyoglobin has a band at 557 nm, while carbonmonoxy-myoglobin has two identical bands at 540 and 577 nm, and the changes at these wavelengths make the process observable and determinable. Thus, the CO-releasing properties of the molecules were calculated using the Lambert–Beer Law.
The commonly used method for determining the CO-releasing of a molecule is UV–visible spectroscopy. There are various ways for releasing CO from a molecule such as substitution, decomposition, and photoactivation. , Manganese carbonyl complexes are known as photoactivatable CO-releasing molecules (photoCORM). A photoCORM must be stable in the dark while it releases CO upon exposure to light of a certain wavelength. […] The basic principle of the myoglobin assay is based on the formation of carbon monoxymyoglobin with the interaction of deoxymyoglobin with CORMs by the spectrophotometric method. […] A 15 μM solution of the complexes was incubated with a 60 μM myoglobin solution reduced with sodium dithionite in a pH 7.4 buffered medium, and the change was followed by the spectroscopic method. The CO-releasing properties of a molecule could be evaluated from two perspectives: the first is how fast the molecule’s release is, and the second is how high the rate of the releasing is.

CT-DNA = experiment: DNA binding analysis, UV-vis, Benesi-Hildebrand method; details: 25 μM DNA, 0-35 μM complex, Tris-HCl pH 7.4, 1 h room temperature, absorbance at 260 nm
Method: DNA-binding properties of the molecules were analyzed with the Benesi–Hildebrand method with UV–vis spectroscopy. The stock solution of manganese complexes (3 mM) was prepared with DMSO, while a fresh stock solution of DNA from commercial CT-DNA was prepared in Tris-HCl buffer solution (pH = 7.4), and the ratio of A 260/A 280 of the DNA stock was recorded as 1.93. A certain concentration of DNA (25 μM) solution was incubated with different amounts of each complex (0, 5, 10, 15, 20, 25, 30, and 35 μM) for 1 h at room temperature. The absorption spectra of all solutions were recorded using a Shimadzu UV-1800 spectrophotometer between 240 and 500 nm.
In this study, the DNA-binding affinity of the molecules was also confirmed with a UV–vis spectrophotometer. […] While small fluctuations for 300 μM of each complex were recorded upon the addition of DNA solutions with different concentrations (0, 20, 40, 60, 80, 100, 120, and 140 μM) at 388 nm (Figures S6–S10), remarkable changes were detected at 260 nm, which is characteristic of DNA.
Here, A o is the absorbance of DNA in the absence of the manganese complex, A obs is the absorbance of DNA at 260 nm with different amounts of the molecules, [M] is the molar concentration of the molecules, and K b is the binding constant. […] These binding constants are moderately available for DNA-target drug candidates.

BSA = BSA (Bos taurus, UniProt P02769); experiment: BSA binding analysis, UV-vis, Benesi-Hildebrand method; set-up: species or system bovine; details: 15 μM BSA, 0-14 μM complex, PBS pH 7.4, 20 min room temperature, band at 280 nm
Method: BSA binding analysis of the molecules was performed with UV–vis spectroscopy, and the records were evaluated using the Benesi-Hildebrand equation. The BSA stock solution was freshly prepared in phosphate-buffered saline (pH 7.4), while the stock solutions of the molecules were prepared in DMSO. A certain BSA solution (15 μM) was incubated with each molecule at different concentrations (0, 2, 4, 6, 8, 10, 12, and 14 μM) for 20 min at room temperature. The absorption spectra of all solutions were recorded between 250 and 350 nm.

Sequence of BSA (P02769 25-607): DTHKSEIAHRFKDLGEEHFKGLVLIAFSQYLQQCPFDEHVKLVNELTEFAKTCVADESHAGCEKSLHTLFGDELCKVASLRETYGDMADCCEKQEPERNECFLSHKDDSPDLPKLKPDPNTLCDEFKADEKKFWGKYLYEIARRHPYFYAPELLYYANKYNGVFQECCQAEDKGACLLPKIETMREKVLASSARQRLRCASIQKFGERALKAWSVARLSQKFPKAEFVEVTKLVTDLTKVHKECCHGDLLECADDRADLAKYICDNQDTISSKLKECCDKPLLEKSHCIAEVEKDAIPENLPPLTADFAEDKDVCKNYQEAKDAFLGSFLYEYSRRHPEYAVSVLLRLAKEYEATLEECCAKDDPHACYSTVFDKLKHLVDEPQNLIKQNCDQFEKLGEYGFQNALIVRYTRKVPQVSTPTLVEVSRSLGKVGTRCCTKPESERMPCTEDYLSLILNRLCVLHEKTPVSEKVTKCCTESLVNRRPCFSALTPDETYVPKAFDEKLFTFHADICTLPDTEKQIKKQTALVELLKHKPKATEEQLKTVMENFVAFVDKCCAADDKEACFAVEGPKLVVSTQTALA

| Compound | Half-life t 1/2 (50% of total CO release) (deoxymyoglobin) | BSA binding constant (BSA) | [MbCO] (deoxymyoglobin) | Released-CO Equivalent (deoxymyoglobin) | Released-CO Percent (deoxymyoglobin) | DNA binding constant K b (CT-DNA) |
| --- | --- | --- | --- | --- | --- | --- |
| C=CCn1c[n+]([Mn-2]2(=[C]=O)(=[C]=O)(=[C]=O)[n+]3ccccc3-c3cccc[n+]32)c2ccccc21.F[P-](F)(F)(F)(F)F [2b, [Mn(CO)3(bpy)(1-allylbenzimidazole)]PF6] | 4.85 min | 4.3 × 10^4 M^–1 | 39.51 µM | 2.63 | 88% | 2.2 × 10^4 M^–1 |
| [Mn(CO)3(bpy)(1-(2-metallyl)benzimidazole)]PF6 [2c] | – | 4.0 × 10^4 M^–1 | 39.81 µM | 2.65 | 88% | 1.8 × 10^4 M^–1 |

More lines, main results first:

| Half-life t 1/2 (50% of total CO release) (deoxymyoglobin) | BSA binding constant (BSA) | Compound | [MbCO] (deoxymyoglobin) | Released-CO Equivalent (deoxymyoglobin) | Released-CO Percent (deoxymyoglobin) | DNA binding constant K b (CT-DNA) |
| --- | --- | --- | --- | --- | --- | --- |
| – | 3.9 × 10^4 M^–1 | [Mn(CO)3(bpy)(1-(2-vinyloxyethyl)benzimidazole)]PF6 [2e] | 40.41 µM | 2.69 | 90% | 2.7 × 10^4 M^–1 |
| – | 8.2 × 10^4 M^–1 | [Mn(CO)3(bpy)(1-(3,3-dimethylallyl)benzimidazole)]PF6 [2d] | 30.34 µM | 2.02 | 67% | 2.4 × 10^4 M^–1 |
| 4.02 min | 3.6 × 10^4 M^–1 | [Mn(CO)3(bpy)(1-isopropylbenzimidazole)]PF6 [2a] | 34.64 µM | 2.30 | 77% | 3.2 × 10^4 M^–1 |
